From US20240174636A1, “NOVEL INDOLEAMINE 2,3-DIOXYGENASE INHIBITORS, PROCESSES FOR THE PREPARATION THEREOF AND PHARMACEUTICAL COMPOSITIONS COMPRISING THE SAME” (YUHAN CORPORATION, priority 2021, published 2024) come the findings set out here.

The structures appear in SMILES notation.

For orientation: IC50 means the midpoint of a concentration-inhibition curve.

The assay concerns the target IDO1 (Homo sapiens, UniProt P14902). In words: IDO1 cellular activity using HEK293 cells transfected with IDO1 expression vector. Type of assay: cell-based. More on the design: host or cells: HEK293 cells, transient transfection with Lipofectamine 2000. The conditions noted are these: 24 h compound incubation, read-out: Inhibitory Activity (IC50). The method, then: HEK293 cells were seeded at a density of 30000 cells/well in 100 μl of a culture medium (DMEM supplemented with 10% FBS, penicillin 100 U/ml, and streptomycin 100 μg/ml) in a tissue culture-treated 96 well plate. The cells were cultured in a 5% carbon dioxide incubator for 24 hours, transfected with the IDO1 expression vector (component A in IDO1 cell-based assay kit, catalog #72031, BPS Bioscience) using Lipofectamine 2000 (Life Technologies, #11668027), and then cultured for 24 hours in a 5% carbon dioxide incubator to express the IDO protein.
The activities were measured using a IDO1 cell-based assay kit (catalog #72031, BPS Bioscience). Specifically, an assay medium was prepared by diluting IDO1 assay medium substrate 1 and IDO1 assay medium supplement 2 in a culture medium at a ratio of 1:100, respectively. The test compounds were diluted to the predetermined concentrations in the fresh assay medium. After removing the culture medium using a multi-pipet, 200 μl of each assay medium containing the test material was added into respective well, followed by incubating in a 5% carbon dioxide incubator for 24 hours. The next day, 140 μl of culture medium from each well was transferred to a new 96-well plate. 10 μl of 6.1N trichloroacetic acid was added into each well, which was then cultured in a 50° C. incubator for 30 minutes. The plate was centrifuged at 2500 rpm for 10 minutes to settle any sediment. A detection reagent solution was prepared by diluting the detection reagent (component D in IDO1 cell-based assay kit, catalog #72031 BPS Bioscience) 50-fold in acetic acid. 100 μl of the supernatant taken from the centrifuged plate was transferred to a new transparent 96-well plate and then 100 μl of the detection reagent solution was added thereto. After reacting at room temperature for 10 minutes, absorbance was measured at 480 nm wavelength. For analysis of the results, the absorbance (At) of the well containing HEK293 cells in which IDO protein was expressed without treatment of an inhibitor was 100%; and the absorbance (Ab) of the well containing HEK293 cells in which IDO protein was not expressed was 0. The % absorbance was calculated according to the following equation: % Absorbance=(A−Ab)/(At−Ab), A=absorbance of the well treated with the test compound.

Chain of IDO1 (P14902 whole entry): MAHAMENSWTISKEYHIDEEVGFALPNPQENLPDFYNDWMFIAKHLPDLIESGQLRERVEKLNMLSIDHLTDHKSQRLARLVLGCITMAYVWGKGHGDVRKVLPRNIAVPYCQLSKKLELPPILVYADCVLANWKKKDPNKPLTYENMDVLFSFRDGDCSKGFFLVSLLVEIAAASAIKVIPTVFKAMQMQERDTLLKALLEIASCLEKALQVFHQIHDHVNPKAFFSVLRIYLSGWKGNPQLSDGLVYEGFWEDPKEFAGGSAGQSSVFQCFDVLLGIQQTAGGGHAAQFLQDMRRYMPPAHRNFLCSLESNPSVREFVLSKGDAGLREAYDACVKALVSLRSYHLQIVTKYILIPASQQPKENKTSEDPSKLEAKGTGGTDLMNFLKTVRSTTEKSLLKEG

As to `C[C@H](C[C@H]1CC[C@@H](c2ccnc3ccc(F)cc32)CC1)Nc1nc(Cl)nc2cc(Br)ccc12` [Example 64, 7-bromo-2-chloro-N-((R)-1-((cis)-4-(6-fluoroquinolin-4-yl)cyclohexyl)propan-2-yl)quinazolin-4-amine], the IC50 is 38.8 nM.

Consider `C[C@H](C[C@H]1CC[C@H](c2ccnc3ccc(F)cc32)CC1)Nc1nc(Cl)nc2c(OC(F)(F)F)cccc12` [Example 53, 2-chloro-N-((R)-1-((trans)-4-(6-fluoroquinolin-4-yl)cyclohexyl)propan-2-yl)-8-(trifluoromethoxy)quinazolin-4-amine], for which the IC50 worked out at 57.4 nM.

Consider `C[C@H](C[C@H]1CC[C@@H](c2ccnc3ccc(F)cc32)CC1)Nc1nc(Cl)nc2cc(F)ccc12` [Example 62, 2-chloro-7-fluoro-N-((R)-1-((cis)-4-(6-fluoroquinolin-4-yl)cyclohexyl)propan-2-yl)quinazolin-4-amine], for which the 50% inhibitory concentration (IC50) was 56.6 nM.

Take `C[C@H](C[C@H]1CC[C@@H](c2ccnc3ccc(F)cc32)CC1)Nc1nc(Cl)nc2c(OC(F)(F)F)cccc12` [Example 71, 2-chloro-N-((R)-1-((cis)-4-(6-fluoroquinolin-4-yl)cyclohexyl)propan-2-yl)-8-(trifluoromethoxy)quinazolin-4-amine]: the IC50 is 276 nM.

Consider `C[C@H](C[C@H]1CC[C@@H](c2ccnc3ccc(F)cc32)CC1)Nc1nc2cccc(F)c2o1` [Example 37, 7-fluoro-N-((R)-1-((cis)-4-(6-fluoroquinolin-4-yl)cyclohexyl)propan-2-yl)benzo[d]oxazol-2-amine], for which the IC50 turned out to be 7.6 nM.

In the case of `C[C@H](C[C@H]1CC[C@H](c2ccnc3ccc(F)cc32)CC1)Nc1nc(Cl)nc2c(Cl)cccc12` [Example 51, 2,8-dichloro-N-((R)-1-((trans)-4-(6-fluoroquinolin-4-yl)cyclohexyl)propan-2-yl)quinazolin-4-amine], the IC50 was 124 nM.

As for `COc1ccc2nc(N[C@H](C)C[C@H]3CC[C@@H](c4ccnc5ccc(F)cc54)CC3)oc2c1F` [Example 42, 7-fluoro-N-((R)-1-((cis)-4-(6-fluoroquinolin-4-yl)cyclohexyl)propan-2-yl)-6-methoxybenzo[d]oxazol-2-amine], the IC50 worked out at 6.6 nM.

With `C[C@H](C[C@H]1CC[C@@H](c2ccnc3ccc(F)cc32)CC1)Nc1nc(Cl)nc2ccccc12` [Example 38, 2-chloro-N-((R)-1-((cis)-4-(6-fluoroquinolin-4-yl)cyclohexyl)propan-2-yl)quinazolin-4-amine], the IC50 was found to be 23.7 nM.

As to `COc1cccc2c(N[C@H](C)C[C@H]3CC[C@H](c4ccnc5ccc(F)cc54)CC3)nc(Cl)nc12` [Example 52, 2-chloro-N-((R)-1-((trans)-4-(6-fluoroquinolin-4-yl)cyclohexyl)propan-2-yl)-8-methoxyquinazolin-4-amine], the IC50 was 260 nM.

As to `C[C@H](C[C@H]1CC[C@H](c2ccnc3ccc(F)cc32)CC1)Nc1nc(Cl)nc2ccc(F)cc12` [Example 48, 2-chloro-6-fluoro-N-((R)-1-((trans)-4-(6-fluoroquinolin-4-yl)cyclohexyl)propan-2-yl)quinazolin-4-amine], the IC50 turned out to be 45.4 nM.

Consider `C[C@H](C[C@H]1CC[C@@H](c2ccnc3ccc(F)cc32)CC1)Nc1nccc2cc(F)ccc12` [Example 33, 6-fluoro-N-((R)-1-((cis)-4-(6-fluoroquinolin-4-yl)cyclohexyl)propan-2-yl)isoquinolin-1-amine], for which the IC50 was determined as 116 nM.

As to `COc1cccc2c(N[C@H](C)C[C@H]3CC[C@@H](c4ccnc5ccc(F)cc54)CC3)nc(Cl)nc12` [Example 70, 2-chloro-N-((R)-1-((cis)-4-(6-fluoroquinolin-4-yl)cyclohexyl)propan-2-yl)-8-methoxyquinazolin-4-amine], the IC50 turned out to be 114 nM.

For `C[C@H](C[C@H]1CC[C@@H](c2ccnc3ccc(F)cc32)CC1)Nc1nc2ccc(F)c(F)c2o1` [Example 47, 6,7-difluoro-N-((R)-1-((cis)-4-(6-fluoroquinolin-4-yl)cyclohexyl)propan-2-yl)benzo[d]oxazol-2-amine], the IC50 is 5.5 nM.

As for `Cc1ccc2c(N[C@H](C)C[C@H]3CC[C@@H](c4ccnc5ccc(F)cc54)CC3)nc(Cl)nc2c1` [Example 65, 2-chloro-N-((R)-1-((cis)-4-(6-fluoroquinolin-4-yl)cyclohexyl)propan-2-yl)-7-methylquinazolin-4-amine], the IC50 is 16.1 nM.

On to `C[C@H](C[C@H]1CC[C@@H](c2ccnc3ccc(F)cc32)CC1)Nc1nc(Cl)nc2cc(C(F)(F)F)ccc12` [Example 66, 2-chloro-N-((R)-1-((cis)-4-(6-fluoroquinolin-4-yl)cyclohexyl)propan-2-yl)-7-(trifluoromethyl)quinazolin-4-amine], for which the IC50 was found to be 30.8 nM.

As for `C[C@H](C[C@H]1CC[C@H](c2ccnc3ccc(F)cc32)CC1)Nc1nc(Cl)nc2cc(Cl)ccc12` [Example 41, 2,7-dichloro-N-((R)-1-((trans)-4-(6-fluoroquinolin-4-yl)cyclohexyl)propan-2-yl)quinazolin-4-amine], the IC50 amounted to 7.6 nM.

For `C[C@H](C[C@H]1CC[C@@H](c2ccnc3ccc(F)cc32)CC1)Nc1nc2cc(F)ccc2o1` [Example 36, 5-fluoro-N-((R)-1-((cis)-4-(6-fluoroquinolin-4-yl)cyclohexyl)propan-2-yl)benzo[d]oxazol-2-amine], the IC50 turned out to be 5.7 nM.

In the case of `C[C@H](C[C@H]1CC[C@H](c2ccnc3ccc(F)cc32)CC1)Nc1nc(Cl)nc2cc(C(F)(F)F)ccc12` [Example 58, 2-chloro-N-((R)-1-((trans)-4-(6-fluoroquinolin-4-yl)cyclohexyl)propan-2-yl)-7-(trifluoromethyl)quinazolin-4-amine], the IC50 was 16.8 nM.

Regarding `COc1ccc2c(N[C@H](C)C[C@H]3CC[C@H](c4ccnc5ccc(F)cc54)CC3)nc(Cl)nc2c1` [Example 59, 2-chloro-N-((R)-1-((trans)-4-(6-fluoroquinolin-4-yl)cyclohexyl)propan-2-yl)-7-methoxyquinazolin-4-amine], the IC50 worked out at 19.4 nM.

As for `CCOc1ccc2nc(N[C@H](C)C[C@H]3CC[C@@H](c4ccnc5ccc(F)cc54)CC3)oc2c1` [Example 44, 6-ethoxy-N-((R)-1-((cis)-4-(6-fluoroquinolin-4-yl)cyclohexyl)propan-2-yl)benzo[d]oxazol-2-amine], the IC50 came to 4.4 nM.

Turning to `C[C@H](C[C@H]1CC[C@H](c2ccnc3ccc(F)cc32)CC1)Nc1nc(Cl)nc2ccc(Cl)cc12` [Example 49, 2,6-dichloro-N-((R)-1-((trans)-4-(6-fluoroquinolin-4-yl)cyclohexyl)propan-2-yl)quinazolin-4-amine], the IC50 was 72 nM.

For `C[C@H](C[C@H]1CC[C@@H](c2ccnc3ccc(F)cc32)CC1)Nc1nc(Cl)nc2ccc(F)cc12` [Example 60, 2-chloro-6-fluoro-N-((R)-1-((cis)-4-(6-fluoroquinolin-4-yl)cyclohexyl)propan-2-yl)quinazolin-4-amine], the IC50 came to 61.1 nM.

As to `C[C@H](C[C@H]1CC[C@@H](c2ccnc3ccc(F)cc32)CC1)Nc1nc2ccc(OCCF)cc2o1` [Example 45, 6-(2-fluoroethoxy)-N-((R)-1-((cis)-4-(6-fluoroquinolin-4-yl)cyclohexyl)propan-2-yl)benzo[d]oxazol-2-amine], the 50% inhibitory concentration (IC50) was 5.5 nM.
